Reference: patent publication US20220235005A1, “FUNGICIDAL N-(PYRID-3-YL)CARBOXAMIDES” (BASF SE, priority 2019, published 2022)

`Cc1cc(NC(=O)/C(=N/OCC(C)C)c2ccccc2)cnc1C` [Ex-8, (2E)-N-(5,6-dimethyl-3-pyridyl)-2-isobutoxyimino-2-phenyl-acetamide] gave a melting point of 169 °C.
